Patent US7476691B2, “Sulfamate benzothiophene derivatives as steroid sulfatase inhibitors” (Laboratoire Theramex, priority 2003, dated 2009)
Several values for one entry are separate records, joined by “and”; a condition that tells them apart may be missing. Identical values can stand only once.

Tests used:
[1] = tested on: ovariectomized Wistar female rats; experiment: Antiuterotrophic/antisulfatase activity: inhibition of E1S stimulated uterus weight; format: in vivo, rat; conditions: ovariectomized rats, E1S 50 μg/kg/day s.c., compound oral 1 mg/kg/day for 4 days
Description: A short model, derived from Purohit's method, was developed for the evaluation in vivo of nonestrogenic steroid sulfatase inhibitors.
Wistar female rats were ovariectomized and left to rest for 4 weeks. Prior to treatment, the absence of cyclicity was checked by vaginal smears.
Animals were supplemented with estrone sulfate (E1S) at 50 μg/kg/day s.c., alone or combined with oral administration of potential sulfatase inhibitors, at 1 mg/kg/day for 4 days. The uteri were removed, freed of adjacent tissue and wet weighed.
The results are expressed as % of inhibition of the E1S induced stimulation.
The activity of Ex 55 on E1S stimulated uterus weight was evaluated in relation to the standard inhibitor 6,6,7 COUMATE from 0.03 mg/kg/day to 1 mg/kg/day p.o.
In this study, a last administration was performed 24 hours before the necropsy for E1S and E2 serum levels assays. The uteri were removed, freed of adjacent tissue, wet weighed and immediately deep frozen until the determination of sulfatase activity.

[2] = tested on: prepubescent female rats; experiment: Residual estrogenic activity in vivo (uterotrophic assay); conditions: prepubescent female rats, oral, 1 mg/rat/day for 3 days
Description: These compounds were checked for residual estrogenic activity in vivo in the classical uterotrophic assay after 3-day administration by oral route in prepubescent female rats.
Prepubescent female rats were orally treated at 1 mg/rat/day for 3 days. On the day following the last treatment, uteri were removed and wet weight were recorded.
The results are expressed as % of stimulation of uterus weight in comparison with controls.

[3] = target: T1, estrone sulfatase (Homo sapiens, UniProt P08842); experiment: Estrone sulfatase whole-cell assay on JEG-3 cells; format: cell-based; parameters: The JEG-3 cell line, derived from a human placental choriocarcinoma, is spontaneously very rich in human estrone sulfatase; endogenous in cells; host or cells: JEG-3 (human placental choriocarcinoma), intact cells; conditions: 4 h treatment, 3H-E1S, read-out: IC50 (nM) ± S.E.M., inhibition of estrone sulfatase
T1 sequence (P08842 22-583): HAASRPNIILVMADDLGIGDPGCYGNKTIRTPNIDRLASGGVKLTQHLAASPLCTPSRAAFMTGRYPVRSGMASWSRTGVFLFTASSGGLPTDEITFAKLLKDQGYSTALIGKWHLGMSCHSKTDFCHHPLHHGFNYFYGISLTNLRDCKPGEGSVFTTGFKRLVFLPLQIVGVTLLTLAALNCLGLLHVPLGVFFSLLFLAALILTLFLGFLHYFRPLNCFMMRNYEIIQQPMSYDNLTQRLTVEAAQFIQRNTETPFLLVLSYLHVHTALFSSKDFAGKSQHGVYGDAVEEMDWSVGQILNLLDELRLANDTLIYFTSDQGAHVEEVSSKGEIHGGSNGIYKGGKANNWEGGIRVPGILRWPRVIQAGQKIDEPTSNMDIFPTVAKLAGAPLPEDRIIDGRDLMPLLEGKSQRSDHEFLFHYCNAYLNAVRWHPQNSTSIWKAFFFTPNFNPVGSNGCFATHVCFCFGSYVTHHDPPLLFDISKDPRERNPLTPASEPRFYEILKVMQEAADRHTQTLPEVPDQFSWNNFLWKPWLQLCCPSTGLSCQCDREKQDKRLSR
Description: (§1) Two in vitro models on whole cells were used. […] Moreover, these cells were used in the in vivo model of hormono-dependent induced xenografts.
(§2) Estrone Sulfatase Assay on Cells
(§3) Whole-cell assays were performed as originally described by Duncan et al. (Cancer Res., 1993, 53: 298-303) on intact MCF-7 cell monolayers. Assays were carried out with cells in logarithmic growth phase, on 96-well (JEG-3) or 24-well (MCF-7) microplates. Twenty-four hours (JEG-3) or 72 h (MCF-7) before studies, cells were seeded in decomplemented fetal calf serum (dFCS) supplemented medium. Then, the seeding medium was removed and the cells were rinsed with PBS to eliminate any trace of dFCS. Then, ^3H-E1S was added, followed by test compounds ranging from 10^−12 M to 10^−5 M. After 4 h (JEG-3) or 20 h (MCF-7) of treatment, the medium was transferred into either 96-deep-well microplates (JEG-3) or plastic tubes (MCF-7) and centrifuged at 200×g for 10 min to pellet cells before toluene extraction. A fraction of medium was used for toluene extraction in order to separate conjugated substrate and non-conjugated products. The radioactivity in the toluene phase was measured by liquid scintillation counting (LSC). Finally, estrone sulfatase activity was expressed in pmoles of ^3H-E1+^3H-E2 formed per 4 or 20 hours and per μg DNA and estrone sulfatase inhibition in percentage of control activity without inhibitor.

[4] = target: T1, estrone sulfatase; experiment: Estrone sulfatase whole-cell assay on MCF-7 cells; format: cell-based; parameters: Whole-cell assays were performed as originally described by Duncan et al. (Cancer Res., 1993, 53: 298-303) on intact MCF-7 cell monolayers; endogenous in cells; host or cells: MCF-7 (human breast adenocarcinoma), intact monolayers; conditions: 20 h treatment, 3H-E1S, read-out: IC50 (nM) ± S.E.M., inhibition of estrone sulfatase
Description: as §1, §2, §3

Row | melting point [°C] | % stimulation of uterus weight in comparison with controls [2] [%] | IC50 [3] | IC50 [4] [nM] | SMILES | % inhibition of the E1S induced stimulation (uterus weight) [1] [%]
1 | 90 |  |  |  | NS(=O)(=O)Oc1ccc2cc(CC3CCCCCC3)sc2c1 [Ex 41, Sulfamic acid, 2-cycloheptylmethyl-benzothiophene-6-yl ester] | 
2 | 102 | 4 | 52.1 ± 4.4 nM | 0.08 ± 0.01 | NS(=O)(=O)Oc1ccc2c(c1)S(=O)(=O)C(C1CCCCCCCCC1)=C2 [Ex 47, Sulfamic acid, 2-cyclodecyl-benzothiophene-6-yl-1,1-dioxide ester] | 62
3 | 92 | 8 |  |  | CC1CCCCC1C1=Cc2ccc(OS(N)(=O)=O)cc2S1(=O)=O (centres unmarked) [Ex 49, Sulfamic acid, 2-(2-methylcyclohexyl)-benzothiophene-6-yl-1,1-dioxide ester] | 
4 | 126 |  | 434 ± 94.8 nM |  | NS(=O)(=O)Oc1ccc2cc(C3CCCCCCC3)sc2c1 [Ex 32, Sulfamic acid, 2-cyclooctyl-benzothiophene-6-yl ester] | 
5 | 165 |  | 566 ± 130 nM |  | NS(=O)(=O)Oc1ccc2c3c(sc2c1)CCCC3 [Ex 64, Sulfamic acid, 1,2,3,4-tetrahydro-dibenzothiophene-7-yl ester] | 
6 | 107 |  |  |  | Cc1c(OS(N)(=O)=O)ccc2cc(C3CCCCCC3)sc12 [Ex 62, Sulfamic acid, 2-cycloheptyl-7-methyl-benzothiophene-6-yl ester] | 
7 | 98 |  | 744 ± 140 nM |  | NS(=O)(=O)Oc1ccc2cc(C3CCCCCCCCC3)sc2c1 [Ex 33, Sulfamic acid, 2-cyclodecyl-benzothiophene-6-yl ester] | 
8 | 185 |  | 92.4 ± 15.6 nM |  | NS(=O)(=O)Oc1ccc2cc(C3C4CC5CC(C4)CC3C5)sc2c1 (centres unmarked) [Ex 37, Sulfamic acid, 2-(2-adamantyl)-benzothiophene-6-yl ester] | 
9 | 112 |  |  |  | CCCc1cc2ccc(OS(N)(=O)=O)cc2s1 [Ex 38, Sulfamic acid, 2-propyl-benzothiophene-6-yl ester] | 
10 | 132 |  | 318 ± 42.9 nM |  | CC1CCC(c2cc3ccc(OS(N)(=O)=O)cc3s2)CC1 (centres unmarked) [Ex 34, Sulfamic acid, 2-(4-methylcyclohexyl)-benzothiophene-6-yl ester] | 
11 | 125 |  |  |  | CCCCCCc1cc2ccc(OS(N)(=O)=O)cc2s1 [Ex 39, Sulfamic acid, 2-hexyl-benzothiophene-6-yl ester] | 
12 | 132 | 6 | ~10 nM and 10 nM | 0.1 ± 0.03 | NS(=O)(=O)Oc1ccc2c(c1)S(=O)(=O)C(CC1CCCCC1)=C2 [Ex 54, Sulfamic acid, 2-cyclohexylmethyl-benzothiophene-6-yl-1,1-dioxide ester] | 49
13 | 180 | 0 | 10.9 ± 2.6 nM | 0.24 ± 0.05 | NS(=O)(=O)Oc1ccc2c(c1)S(=O)(=O)C(C1CCCCC1)=C2 [Ex 44, Sulfamic acid, 2-cyclohexyl-benzothiophene-6-yl-1,1-dioxide ester] | 70
14 | 132 |  | 102 ± 58 nM |  | NS(=O)(=O)Oc1ccc2cc(C3CCCCCC3)sc2c1 [Ex 31, Sulfamic acid, 2-cycloheptyl-benzothiophene-6-yl ester] | 
15 |  | 0 | 7 ± 1.2 nM | 0.16 ± 0.03 | NS(=O)(=O)Oc1ccc2cc(C3CCCCC3)[s+]([O-])c2c1 (centres unmarked) [Ex 42, Sulfamic acid, 2-cyclohexyl-benzothiophene-6-yl-1-oxide ester] | 38
16 | 72 |  | 128 ± 14.2 nM |  | CC1(C)CCCC1c1cc2ccc(OS(N)(=O)=O)cc2s1 (centres unmarked) [Ex 36, Sulfamic acid, 2-(2,2-dimethylcyclopentyl)-benzothiophene-6-yl ester] | 
17 | 115 |  |  |  | NS(=O)(=O)Oc1ccc2cc(CC3CCCCC3)sc2c1 [Ex 40, Sulfamic acid, 2-cyclohexylmethyl-benzothiophene-6-yl ester] | 
18 | 170 | 3 | 7.6 ± 1.3 nM | 0.09 ± 0.02 | CC1CCC(C2=Cc3ccc(OS(N)(=O)=O)cc3S2(=O)=O)CC1 (centres unmarked) [Ex 48, Sulfamic acid, 2-(4-methylcyclohexyl)-benzothiophene-6-yl-1,1-dioxide ester] | 60
19 | 90 |  | 31.7 ± 9.9 nM |  | Cc1c(OS(N)(=O)=O)ccc2c1S(=O)(=O)C(C1CCCCCC1)=C2 [Ex 65, Sulfamic acid, 2-cycloheptyl-7-methyl-benzothiophene-6-yl-1,1-dioxide ester] | 
20 | 172 | 24 |  |  | CC1(C)CCCC1C1=Cc2ccc(OS(N)(=O)=O)cc2S1(=O)=O (centres unmarked) [Ex 50, Sulfamic acid, 2-(2,2-dimethylcyclopentyl)-benzothiophene-6-yl-1,1-dioxide ester] | 
21 | 110 |  | 78.8 ± 39.8 nM |  | NS(=O)(=O)Oc1ccc2cc(C3CCCC3)sc2c1 [Ex 30, Sulfamic acid, 2-cyclopentyl-benzothiophene-6-yl ester] | 
22 | 98 |  | 12.5 ± 3.3 nM |  | CCCCCCC1=Cc2ccc(OS(N)(=O)=O)cc2S1(=O)=O [Ex 53, Sulfamic acid, 2-hexyl-benzothiophene-6-yl-1,1-dioxide ester] | 
23 | 159 |  | 24.7 ± 5 nM |  | CCCC1=Cc2ccc(OS(N)(=O)=O)cc2S1(=O)=O [Ex 52, Sulfamic acid, 2-propyl-benzothiophene-6-yl-1,1-dioxide ester] | 
24 | 110 |  | 147 ± 16.3 nM |  | CC1CCCCC1c1cc2ccc(OS(N)(=O)=O)cc2s1 (centres unmarked) [Ex 35, Sulfamic acid, 2-(2-methylcyclohexyl)-benzothiophene-6-yl ester] | 

Row | SMILES | melting point [°C] | % stimulation of uterus weight in comparison with controls [2] [%] | IC50 [3] | IC50 [4] [nM] | % inhibition of the E1S induced stimulation (uterus weight) [1] [%]
25 | C[C@]12CCC3c4ccc(OS(N)(=O)=O)cc4CCC3C1CCC2=O (some centres unmarked) [EMATE, estrone-3-sulfamate, reference compound] |  |  | 3.2 ± 0.2 nM | 0.06 ± 0.01 | 
